Where two headings read alike, the source gives them in different places.
Key:
[1] = system: MSH2-proficient HEC59 cells with chromosome 2 transfer (HEC59 chr.2); experiment: Cell viability (MTS) assay, MSH2-proficient cells; format: cell-based, human; conditions: for IC50: 24 h exposure; for induction of cell death: MSH2-proficient cells
Experimental: (§1) Cells proficient and deficient in MSH2 were exposed to increasing concentrations of the drugs and cell survival determined in an MTS assay. This assay is based on the mitochondrial activity of living cells that reduces the tetrazolium product (MTS) into a formazan product that can be spectrophotometrically analyzed at OD490.
(§2) Cell Viability assays. HEC59 cells and their isogenic counterpart with chromosome 2 transfer were grown in standard growth media of DMEM-F12+10% FBS. Cells were plated in 96 well plates at an appropriate concentration in 100 μl media and incubated overnight. Media was replaced with fresh media containing drug and allowed to incubate for 24 hrs at indicated concentrations. Untreated cells received fresh media containing 0.1% DMSO. One solution reagent (CellTiter 96(r) AQueous One Solution) is added to existing media (20 μl/well) and allowed to incubate 3-4 hrs. A plate reader was used to record the absorbance at 490 nm.
(§3) The CellTiter 96® AQueous One Solution Cell Proliferation Assay® is a colorimetric method for determining the number of viable cells in proliferation, cytotoxicity or chemosensitivity assays. The CellTiter 96® AQueous One Solution Reagent contains a tetrazolium compound [3-(4,5-dimethylthiazol-2-yl)-5-(3-carboxymethoxyphenyl)-2-(4-sulfophenyl)-2H-tetrazolium, inner salt; MTS] and an electron coupling reagent (phenazine ethosulfate; PES). PES has enhanced chemical stability, which allows it to be combined with MTS to form a stable solution. The quantity of formazan product as measured by the amount of 490 nm absorbance is directly proportional to the number of living cells in culture.
(§4) Dose-dependent response to nineteen increasing concentrations of the respective compound was determined, and analyzed for IC50 values using GraphPad Prism 4™. Each compound was analyzed in triplicates.

[2] = system: MSH2-deficient HEC59 cells; experiment: Cell viability (MTS) assay, MSH2-deficient cells; format: cell-based, human; conditions: for IC50 / MSH2 dependence of cell death response (words): 24 h exposure; for Fold difference: IC50 MSH2-deficient vs MSH2-proficient cells, 24 h; for MSH2 dependence of cell death response (words): MSH2-deficient vs -proficient cells; for induction of cell death: MSH2-deficient cells
Experimental: as §1, §2, §3, §4

[3] = system: A2780 cells; experiment: MTS assay, platinum sensitive ovarian cancer cells; format: cell-based; conditions: for cell killing: 10 uM cisplatin, 20 uM rescinnamine, lisinopril
Experimental: (§5) A2780 is a cisplatinum-sensitive ovarian cancer cell line, […] its isogenic, but cisplatinum-resistant counterpart. Shown are average and standard deviations of a minimum of 3 individual experiments. Results were normalized to the untreated control. FIG. 5: MTS assays of platinum sensitive (A2780) and resistant (A2780cis) cells in the presence of 10 uM cisplatinum and increasing concentrations of rescinnamine. FIG. 6: MTS assay of A2780 and A2780cis ovarian cancer cells, untreated, treated with 10 uM cisplatin, 20 uM rescinnamine and lisinopril.

[4] = system: RKO oxa cells; experiment: MTS assay, oxaliplatin insensitive colorectal cancer cells; format: cell-based
From the text: FIG. 7: MTS assay of colorectal cancer cells sensitive (RKO) and insensitive (RKO oxa) to oxaliplatin, treated with oxaliplatin, rescinnamine and combination.

[5] = system: A2780cis cells; experiment: MTS assay, platinum resistant ovarian cancer cells; format: cell-based; conditions: for cell killing: 10 uM cisplatin, 20 uM rescinnamine, lisinopril
Experimental: as §5

[6] = system: MSH2/6-dependent cell death; experiment: Caspase-3-dependent cell death assay; format: cell-based
[7] = system: MSH2-deficient HEC59 cells; conditions: 48-72 hours after first exposure; cited from earlier work
[8] = Homo sapiens, MTS, read-out: IC50 MSH2-proficient
[9] = Homo sapiens, read-out: IC50 in MSH2-proficient cells
[10] = Homo sapiens, MTS, read-out: IC50 MSH2-deficient
[11] = Homo sapiens, read-out: IC50 in MSH2-deficient cells
[12] = in the presence of 10 uM cisplatinum

Compound	IC50 [1, 8] [µM]	IC50 [1, 9] [µM]	IC50 [2, 10] [µM]	Fold difference [2]	MSH2 dependence of cell death response (words) [2]	further results
COC(=O)[C@H]1[C@H]2C[C@@H]3c4[nH]c5cc(OC)ccc5c4CCN3C[C@H]2C[C@@H](OC(=O)c2cc(OC)c(OC)c(OC)c2)[C@@H]1OC [reserpine]	61	61	93	1.5	robust MSH2-dependent cell death response	MSH2 dependence of cell death response (words) ([2]; listed as Reserpine): significant increase in resistance
COC(=O)[C@H]1[C@H]2C[C@@H]3c4[nH]c5cc(OC)ccc5c4CCN3C[C@H]2C[C@@H](OC(=O)c2ccc(OC)cc2)[C@@H]1OC [4-methoxy benzoyl, 4-Methoxybenzoyl reserpine]	67		68	1.01		
COC(=O)[C@H]1[C@H]2C[C@@H]3c4[nH]c5ccccc5c4CCN3C[C@H]2C[C@@H](OC(=O)c2cc(OC)c(OC)c(OC)c2)[C@@H]1OC [deserpidine]	48	49	59	1.2	no significant specificity for the presence of MSH2	IC50 [2, 11]: 56 µM
COC(=O)[C@H]1[C@H]2C[C@@H]3c4[nH]c5cc(OC)ccc5c4CCN3C[C@H]2C[C@@H](O)[C@@H]1OC [Methyl Reserpate, Methyl reserpate]					no preference for either cell line	induction of cell death [1]: only weakly induces cell death; induction of cell death [2]: only weakly induces cell death
COC(=O)[C@H]1[C@H]2C[C@@H]3c4[nH]c5cc(OC)ccc5c4CCN3C[C@H]2C[C@@H](OC(=O)/C=C/c2cc(OC)c(OC)c(OC)c2)[C@@H]1OC [rescinnamine]	39	39	87	2.6	robust MSH2-dependent cell death response	cell killing [3]: more effective in sensitive ovarian cancer cells than cisplatinum; cell death with increasing concentrations of rescinnamine [3, 12]: concentration-dependent, significant cell death; overcoming oxaliplatin resistance [4]: overcomes oxaliplatin resistance, albeit not to the same extent as cisplatinum resistance; MSH2-dependent induction of cell death relative to reserpine [1]: roughly 2 fold; cell killing [5]: overcoming cisplatinum resistance; cell death with increasing concentrations of rescinnamine [5, 12]: concentration-dependent, significant cell death; induction of MSH2/6-dependent cell death [6]: induces the targeted, MSH2/6-dependent cell death
COC(=O)[C@H]1[C@H]2C[C@@H]3c4[nH]c5cc(OC)ccc5c4CCN3C[C@H]2C[C@@H](OC(=O)c2ccc3c(c2)OCO3)[C@@H]1OC [methylendioxy-benzoyl, 3,4-Methylenedioxy benzoyl reserpine]	51	51	36	0.71	MSH2-deficient cells show a higher sensitivity	IC50 [2, 11]: 36 µM
Evodiamine						induction of cell death [1]: no significant cytotoxic effect; induction of cell death [2]: no significant cytotoxic effect
COC(=O)[C@H]1[C@H]2C[C@@H]3c4[nH]c5cc(OC)ccc5c4CCN3C[C@H]2C[C@@H](OC(=O)c2cccc(OC)c2)[C@@H]1OC [3-methoxy benzoyl, 3-Methoxybenzoyl reserpine]	88		83	0.94		
N.N.[Cl][Pt][Cl] [cisplatin]				1.6	only a weak difference	IC50 ([1]; MTS, read-out: IC50 MSH2-proficient): 47 µM; IC50 ([2]; MTS, read-out: IC50 MSH2-deficient): 75 µM; increase in resistance in MSH2-deficient cells, late response [7]: two- to four-fold increase in resistance
COC(=O)[C@H]1[C@H]2C[C@@H]3c4[nH]c5cc(OC)ccc5c4CCN3C[C@H]2C[C@@H](OC(=O)c2cc(OC)cc(OC)c2)[C@@H]1OC [3,5-dimethoxy benzoyl, 3,5-Dimethoxybenzoyl reserpine]	38		36	0.95		
NCCCC[C@H](N[C@@H](CCc1ccccc1)C(=O)O)C(=O)N1CCC[C@H]1C(=O)O [lisinopril]						cell killing [3]: does not show the same effect; cell killing [5]: does not show the same effect
COC(=O)[C@H]1[C@H]2C[C@@H]3c4[nH]c5cc(OC)ccc5c4CCN3C[C@H]2C[C@@H](OC(=O)/C=C/c2ccccc2)[C@@H]1OC [cinnamoyl reserpine, Cinnamyl reserpine]	130	130	150	1.2	independent of functional MSH2	IC50 [2, 11]: 150 µM
COC(=O)[C@H]1[C@H]2C[C@@H]3c4[nH]c5cc(OC)ccc5c4CCN3C[C@H]2C[C@@H](OC(=O)c2ccccc2)[C@@H]1OC [MJG-6-41, Benzoyl resperine]	132		110	0.83		
COC(=O)[C@H]1[C@H]2C[C@@H]3c4[nH]c5cc(OC)ccc5c4CCN3C[C@H]2C[C@@H](OC(=O)c2ccc(OC)c(OC)c2)[C@@H]1OC [3,4-dimethoxy benzoyl, 3,4-Dimethoxybenzoyl reserpine]	66	66	85	1.3	significant MSH2-dependent cell death response	IC50 [2, 11]: 85 µM
